Data published in paper PMC10793101 (Acta Pharmaceutica Sinica. B, 2023).
Each block holds one compound with its values, some of them ahead of it.

Key:
[1] = test system: APAP-induced liver injury (AILI); details: cited from earlier work
TFEB [2] = assay: qPCR of TFEB target genes in AML12 cells; type: cell-based, mouse; details: qPCR normalized to 18s
[3] = test system: APAP-induced liver injury (AILI); assay: Protection against APAP overdose-induced liver injury in mice; type: in vivo, mouse
TFEB [4] = biological target: T1, TFEB (Homo sapiens, UniProt P19484); assay: GFP-TFEB nuclear translocation validation by confocal microscopy in AML12 cells; type: cell-based, mouse; details: stably expressing pEGFP-N1-TFEB AML12 cells, 24 h, vs control
T1 sequence (P19484 1-476): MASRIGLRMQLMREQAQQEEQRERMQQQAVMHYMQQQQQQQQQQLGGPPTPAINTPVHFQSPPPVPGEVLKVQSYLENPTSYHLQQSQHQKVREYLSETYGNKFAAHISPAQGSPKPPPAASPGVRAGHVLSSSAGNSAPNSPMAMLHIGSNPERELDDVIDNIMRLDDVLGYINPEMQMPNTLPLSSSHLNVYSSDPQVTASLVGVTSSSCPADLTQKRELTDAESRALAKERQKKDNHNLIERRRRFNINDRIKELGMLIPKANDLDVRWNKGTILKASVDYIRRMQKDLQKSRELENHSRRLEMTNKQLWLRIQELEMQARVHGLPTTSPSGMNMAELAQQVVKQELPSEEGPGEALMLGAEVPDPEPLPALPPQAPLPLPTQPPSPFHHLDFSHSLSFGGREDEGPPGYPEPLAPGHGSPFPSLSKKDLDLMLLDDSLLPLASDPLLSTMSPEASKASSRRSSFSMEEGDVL

TFEB [5] = biological target: T1, TFEB; assay: GFP-TFEB nuclear translocation assay in qHTS format; type: cell-based, mouse
TFEB [6] = assay: TFEB promoter-driven luciferase reporter assay in AML12 cells; type: cell-based, mouse; details: AML12 cells transfected with pGL3-TFEB-Luc, 24 h treatment
[7] = salinomycin 5 mg/kg i.p. with APAP 500 mg/kg i.p., 6 and 24 h

- levels of hepatic GSH (mouse livers; APAP 0.5, 2 and 6 h, recovered at 24 h): significantly decreased
- mRNA levels of TFEB targeted genes in liver (mouse livers; APAP 500 mg/kg, 6 h, vs saline): significantly lower
- levels of hepatic CYP2E1 (mouse livers; APAP-treated WT mouse livers vs saline-treated WT): ~2 fold
Compound: CC(=O)Nc1ccc(O)cc1 [APAP, Acetaminophen]
- serum alanine aminotransferase (ALT) levels (mouse livers; APAP 500 mg/kg i.p., 6 or 24 h, vs saline): significantly increased

Compound: C[C@@H]1O[C@@H](OC[C@H]2O[C@@H](Oc3cc(O)c4c(c3)O[C@H](c3ccc(O)cc3)CC4=O)[C@H](O)[C@@H](O)[C@@H]2O)[C@H](O)[C@H](O)[C@H]1O [Narirutin]
- hepatic APAP-adducts and AILI ([1]; mice, by activating TFEB via enhanced calcineurin activity): decrease

Compound: CC[C@@H](C(=O)[C@@H](C)[C@@H](O)[C@H](C)[C@@H]1O[C@@H]([C@@H](CC)C(=O)O)CC[C@@H]1C)[C@H]1O[C@]2(C=C[C@@H](O)[C@]3(CC[C@@](C)([C@H]4CC[C@](O)(CC)[C@H](C)O4)O3)O2)[C@H](C)C[C@@H]1C [Salinomycin]
- mRNA levels of TFEB target genes (Tfeb, Sqstm1, Ppargc1a, Lamp1, Vatp6v1d, Vatp6v1h, Pparα) (TFEB [2]): increased
- hepatic levels of APAP-protein adducts ([3]; APAP-treated mice with or without salinomycin): similar
- serum levels of APAP-adducts ([3]; APAP-treated mice with salinomycin): markedly decreased
- hepatic protein levels of CYP2E1 ([3]; immunoblotting, salinomycin 5 mg/kg i.p.): did not change
- hepatic TFEB levels ([3]; immunoblotting, salinomycin with APAP vs APAP): partially recovered
- levels of phosphorylated JNK ([3]; liver, co-treatment of salinomycin after APAP overdose): reduced
- areas of centrilobular necrosis (H&E and TUNEL staining) ([3]; salinomycin 5 mg/kg i.p. with APAP 500 mg/kg i.p.): almost completely abolished
- serum ALT levels [3, 7]: markedly decreased
- serum AST levels [3, 7]: markedly decreased
- nuclear translocation of TFEB (TFEB [4]): significantly increased
- EC50 (TFEB [5]): 2640 nM
- TFEB promoter driven luciferase activity (TFEB [6]): significantly increased

Compound: CCN(CC)CCNC(=O)c1c(C)[nH]c(/C=C2\C(=O)Nc3ccc(F)cc32)c1C [Sunitinib]
- effect on AILI at high dose ([1]; high dose): increases AILI
- effect on AILI at low dose ([1]; low dose): mild hepatoprotective effect

- nuclear translocation of TFEB (TFEB [4]): significantly increased
Compound: CCC(=O)N1CCN(c2ccc(-n3c(=O)ccc4cnc5ccc(-c6cnc7ccccc7c6)cc5c43)cc2C(F)(F)F)CC1 [Torin1, Torin 1]
